Data reported in paper PMC11995724, “Antibiotic target discovery by integrated phenotypic and activity-based profiling of electrophilic fragments” (Cell chemical biology, 2025).

Assay: in vitro
Details: human, hek293t cells

SMILES | viability at 48 h, 25 µM [%]
C=CC(=O)N1CCCN(S(N)(=O)=O)CC1 [3-K10, 4-(prop-2-enoyl)-1,4-diazepane-1-sulfonamide] | 98.5
C=CC(=O)N1CCOC(c2cnn(C)c2)C1 (stereo not shown) [3-K11, 1-[2-(1-methyl-1H-pyrazol-4-yl)morpholin-4-yl]prop-2-en-1-one] | 49.9
C=CC(=O)N1CCCCC1c1noc(C2CC2)n1 (stereo not shown) [3-K12, 1-[2-(5-cyclopropyl-1,2,4-oxadiazol-3-yl)piperidin-1-yl]prop-2-en-1-one] | 105
C=CC(=O)NCC(C)(C)C1(O)CCOC1 (stereo not shown) [3-K13, N-[2-(3-hydroxyoxolan-3-yl)-2-methylpropyl]prop-2-enamide] | 68
C=CC(=O)N1CCCC(O)(CC(N)=O)C1 (stereo not shown) [3-K14, 2-[3-hydroxy-1-(prop-2-enoyl)piperidin-3-yl]acetamide] | 101
C=CC(=O)NCc1cccc(NS(C)(=O)=O)c1 [3-K15, N-[(3-methanesulfonamidophenyl)methyl]prop-2-enamide] | 31.7
C=CC(=O)N(CC)CC(=O)N1CCc2c(cccc2NC(C)=O)C1 [3-K16, N-[2-(5-acetamido-1,2,3,4-tetrahydroisoquinolin-2-yl)-2-oxoethyl]-N-ethylprop-2-enamide] | 90.5
C=CC(=O)N(C)CC(=O)N1CCCCC1c1nc(C)no1 (stereo not shown) [3-K17, N-methyl-N-{2-[2-(3-methyl-1,2,4-oxadiazol-5-yl)piperidin-1-yl]-2-oxoethyl}prop-2-enamide] | 47.9
C=CC(=O)Nc1ccc2oc(CC(C)(C)C)nc2c1 [3-K18, N-[2-(2,2-dimethylpropyl)-1,3-benzoxazol-5-yl]prop-2-enamide] | 82.2
C=CC(=O)N1CCC(c2ccc(OC)c(F)c2)C1 (stereo not shown) [3-K19, 1-[3-(3-fluoro-4-methoxyphenyl)pyrrolidin-1-yl]prop-2-en-1-one] | 48.9
C=CC(=O)NCCCn1cnc2c1CCCC2 [3-K20, N-[3-(4,5,6,7-tetrahydro-1H-1,3-benzodiazol-1-yl)propyl]prop-2-enamide] | 101
C=CC(=O)N(CC)CC(=O)N1CC[S+]([O-])C(C)(C)CC1 (stereo not shown) [3-K21, N-[2-(7,7-dimethyl-1-oxo-1lambda4,4-thiazepan-4-yl)-2-oxoethyl]-N-ethylprop-2-enamide] | 40.1
C=CC(=O)NC1(c2ncon2)CCOCC1 [3-K22, N-[4-(1,2,4-oxadiazol-3-yl)oxan-4-yl]prop-2-enamide] | 66.9
C=CC(=O)N1CCC(C(=O)NCc2ncc(N(C)C)cn2)CC1 [3-L03, N-{[5-(dimethylamino)pyrimidin-2-yl]methyl}-1-(prop-2-enoyl)piperidine-4-carboxamide] | 68.2
C=CC(=O)Nc1cccc(-c2ccon2)c1 [3-L04, N-[3-(1,2-oxazol-3-yl)phenyl]prop-2-enamide] | 70.4
C=CC(=O)N(CC)CC(=O)N1CCN(c2ccsc2C#N)CC1 [3-L05, N-{2-[4-(2-cyanothiophen-3-yl)piperazin-1-yl]-2-oxoethyl}-N-ethylprop-2-enamide] | 62.6
C=CC(=O)NCc1ccc(C(=O)N2CCC[C@H]2C(=O)NC)cc1 [3-L06, (2S)-N-methyl-1-{4-[(prop-2-enamido)methyl]benzoyl}pyrrolidine-2-carboxamide] | 80.6
C=CC(=O)NCC(F)(F)C1(OC)CCC1 [3-L07, N-[2,2-difluoro-2-(1-methoxycyclobutyl)ethyl]prop-2-enamide] | 82.7
C=CC(=O)N(C)Cc1nc2c(cnn2C)c(=O)[nH]1 [3-L08, N-methyl-N-({1-methyl-4-oxo-1H,4H,5H-pyrazolo[3,4-d]pyrimidin-6-yl}methyl)prop-2-enamide] | 70.4
C=CC(=O)NC1(c2nc(C)no2)CC1 [3-L09, N-[1-(3-methyl-1,2,4-oxadiazol-5-yl)cyclopropyl]prop-2-enamide] | 46.8
C=CC(=O)Nc1cnoc1C(C)C [3-L10, N-[5-(propan-2-yl)-1,2-oxazol-4-yl]prop-2-enamide] | 92.6
C=CC(=O)N(C)Cc1cccnc1 [3-L11, N-methyl-N-[(pyridin-3-yl)methyl]prop-2-enamide] | 82
C=CC(=O)N1CCC(C(=O)NCc2cc(=O)n3ccccc3n2)CC1 [3-L12, N-({4-oxo-4H-pyrido[1,2-a]pyrimidin-2-yl}methyl)-1-(prop-2-enoyl)piperidine-4-carboxamide] | 82.7
C=CC(=O)NCC1CCCC1N1CCCS1(=O)=O (stereo not shown) [3-L13, N-{[2-(1,1-dioxo-1lambda6,2-thiazolidin-2-yl)cyclopentyl]methyl}prop-2-enamide] | 78.9
C=CC(=O)NCc1cc2cc(C)ccc2o1 [3-L14, N-[(5-methyl-1-benzofuran-2-yl)methyl]prop-2-enamide] | 85.4
C=CC(=O)NCc1c(F)cccc1S(=O)(=O)N(C)C [3-L15, N-{[2-(dimethylsulfamoyl)-6-fluorophenyl]methyl}prop-2-enamide] | 83.2

SMILES | viability at 48 h, 25 µM [%]
C=CC(=O)N1CC(C)c2ccc(S(N)(=O)=O)cc21 (stereo not shown) [3-L16, 3-methyl-1-(prop-2-enoyl)-2,3-dihydro-1H-indole-6-sulfonamide] | 1.43
C=CC(=O)NC1CC(C)Cc2cc(OC)ccc21 (stereo not shown) [3-L17, N-(6-methoxy-3-methyl-1,2,3,4-tetrahydronaphthalen-1-yl)prop-2-enamide] | 61.6
C=CC(=O)Nc1ccc(C2=NNC(=O)CO2)cc1 [3-L18, N-[4-(5-oxo-5,6-dihydro-4H-1,3,4-oxadiazin-2-yl)phenyl]prop-2-enamide] | 67.1
C=CC(=O)NCC(OC)C1CCOC1 (stereo not shown) [3-L19, N-[2-methoxy-2-(oxolan-3-yl)ethyl]prop-2-enamide] | 85.8
C=CC(=O)NCc1cn2c(n1)CCCC2 [3-L20, N-({5H,6H,7H,8H-imidazo[1,2-a]pyridin-2-yl}methyl)prop-2-enamide] | 103
C=CC(=O)NCc1ccccc1N1CCCC(C(N)=O)C1 (stereo not shown) [3-L21, 1-{2-[(prop-2-enamido)methyl]phenyl}piperidine-3-carboxamide] | 68.9
C=CC(=O)NCc1ccc(C(=O)N2CCC[C@@H]2C(N)=O)cc1 [3-L22, (2R)-1-{4-[(prop-2-enamido)methyl]benzoyl}pyrrolidine-2-carboxamide] | 81.9
C=CC(=O)N1CCn2cccc2C1c1ccncc1 (stereo not shown) [3-M03, 1-[1-(pyridin-4-yl)-1H,2H,3H,4H-pyrrolo[1,2-a]pyrazin-2-yl]prop-2-en-1-one] | 45.2
C=CC(=O)N1CCC(C(=O)NC2(c3ccc(F)cc3F)CCC2)CC1 [3-M04, N-[1-(2,4-difluorophenyl)cyclobutyl]-1-(prop-2-enoyl)piperidine-4-carboxamide] | 97.5
C=CC(=O)N1CCC(C(=O)NC(C)CC2CC2)CC1 (stereo not shown) [3-M05, N-(1-cyclopropylpropan-2-yl)-1-(prop-2-enoyl)piperidine-4-carboxamide] | 53.3
C=CC(=O)N1CCC(C(=O)NCC(O)c2cccc(Cl)c2)CC1 (stereo not shown) [3-M06, N-[2-(3-chlorophenyl)-2-hydroxyethyl]-1-(prop-2-enoyl)piperidine-4-carboxamide] | 98.1
C=CC(=O)NCC1CCc2cccnc21 (stereo not shown) [3-M07, N-({5H,6H,7H-cyclopenta[b]pyridin-7-yl}methyl)prop-2-enamide] | 47.8
C=CC(=O)Nc1cccc(S(=O)(=O)C2CCOCC2)c1 [3-M08, N-[3-(oxane-4-sulfonyl)phenyl]prop-2-enamide] | 96.8
C=CC(=O)N1CCCC1c1cn(C)nc1C (stereo not shown) [3-M09, 1-[2-(1,3-dimethyl-1H-pyrazol-4-yl)pyrrolidin-1-yl]prop-2-en-1-one] | 50.9
C=CC(=O)N1CCCn2nc(CO)cc2C1 [3-M10, 1-[2-(hydroxymethyl)-4H,5H,6H,7H,8H-pyrazolo[1,5-a][1,4]diazepin-5-yl]prop-2-en-1-one] | 109
C=CC(=O)N1CCN(C(C)c2nc(C)no2)CC1 (stereo not shown) [3-M11, 1-{4-[1-(3-methyl-1,2,4-oxadiazol-5-yl)ethyl]piperazin-1-yl}prop-2-en-1-one] | 61
C=CC(=O)N1CCCC(n2cc(C)cn2)C1 (stereo not shown) [3-M12, 1-[3-(4-methyl-1H-pyrazol-1-yl)piperidin-1-yl]prop-2-en-1-one] | 94.4
C=CC(=O)NCCn1nc(C)cc1C [3-M13, N-[2-(3,5-dimethyl-1H-pyrazol-1-yl)ethyl]prop-2-enamide] | 56.9
C=CC(=O)N1CCC(C(=O)NC(C)(C)CSC)CC1 [3-M14, N-[2-methyl-1-(methylsulfanyl)propan-2-yl]-1-(prop-2-enoyl)piperidine-4-carboxamide] | 153
C=CC(=O)N1CCCn2ncc(C3CC3)c21 [3-M15, 1-{3-cyclopropyl-4H,5H,6H,7H-pyrazolo[1,5-a]pyrimidin-4-yl}prop-2-en-1-one] | 1.25
C=CC(=O)N1CCC(C(=O)Oc2ccc(NC(C)=O)cc2)CC1 [3-M16, 4-acetamidophenyl 1-(prop-2-enoyl)piperidine-4-carboxylate] | 93.3
C=CC(=O)NCCC(=O)N1CCC(c2ncccn2)CC1 [3-M17, N-{3-oxo-3-[4-(pyrimidin-2-yl)piperidin-1-yl]propyl}prop-2-enamide] | 62.4
C=CC(=O)Nc1cnn(CCN2CCCC2=O)c1 [3-M18, N-{1-[2-(2-oxopyrrolidin-1-yl)ethyl]-1H-pyrazol-4-yl}prop-2-enamide] | 90
C=CC(=O)N(CC)CC(=O)Nc1ccc2c(c1)nc1n2CCCCC1 [3-M19, N-[({1,8-diazatricyclo[7.5.0.0,2,7]tetradeca-2,4,6,8-tetraen-5-yl}carbamoyl)methyl]-N-ethylprop-2-enamide] | 35.8
C=CC(=O)NCCc1nccs1 [3-M20, N-[2-(1,3-thiazol-2-yl)ethyl]prop-2-enamide] | 89.6
C=CC(=O)N1CCC(C(=O)NCc2ccc(-c3n[nH]c(C)n3)cc2)CC1 [3-M21, N-{[4-(5-methyl-1H-1,2,4-triazol-3-yl)phenyl]methyl}-1-(prop-2-enoyl)piperidine-4-carboxamide] | 56.1
